One assay concerns the target T1, human V1a receptor (Homo sapiens, UniProt P37288).
T1 construct: expressed in transfected cells; host or cells: CHO K1 (ATCC), also stably transfected with a modified aequorin
The assay is described as follows: Cellular in vitro assay for vasopressin receptor activity, V1a cell line (aequorin luminescence). Format: cell-based. The following applies: for IC50: CHO cell line transfected with human V1a receptor, agonist [Arg8]-vasopressin at EC50 concentration, read-out: IC50hV1a; for ratio IC50 hV2/hV1a: ratio of the IC50 on human V2 to the IC50 on human V1a. The method, then:
(§1) B-1. Cellular In Vitro Assay for Determining Vasopressin Receptor Activity
(§2) The identification of agonists and antagonists of the V1a and V2 vasopressin receptors from humans, rats and dogs as well as the quantification of the activity of the compounds of the invention is carried out using recombinant cell lines. These cell lines originally derive from a hamster's ovary epithelial cell (Chinese Hamster Ovary, CHO K1, ATCC: American Type Culture Collection, Manassas, Va. 20108, USA). The test cell lines constitutively express the human, rat or dog V1a or V2 receptors. In case of the Gαq-coupled V1a receptors, cells are also stably transfected with a modified form of the calcium-sensitive photoproteins aequorin (human and rat V1a) or obelin (dog V1a), which, after reconstitution with the cofactor coelenterazine, emit light when there are increases in free calcium concentrations [Rizzuto R, Simpson A W, Brini M, Pozzan T, Nature 358, 325-327 (1992); Illarionov B A, Bondar V S, Illarionova V A, Vysotski E S, Gene 153 (2), 273-274 (1995)]. The resulting vasopressin receptor cells react to stimulation of the recombinantly expressed V1a receptors by intracellular release of calcium ions, which can be quantified by the resulting photoprotein luminescence. The Gs-coupled V2 receptors are stably transfected into cell lines expressing the gene for firefly luciferase under control of a CRE-responsible promoter. Activation of V2 receptors induces the activation of the CRE-responsive promoter via cAMP increase, thereby inducing the expression of firefly luciferase. The light emitted by photoproteins of V1a cell lines as well as the light emitted by firefly luciferase of V2 cell lines corresponds to the activation or inhibition of the respective vasopressin receptor. The bioluminescence of the cell lines is detected using a suitable luminometer [Milligan G, Marshall F, Rees S, Trends in Pharmacological Sciences 17, 235-237 (1996)].
Vasopressin V1a Receptor Cell Lines:
On the day before the assay, the cells are plated out in culture medium (DMEM/F12, 2% FCS, 2 mM glutamine, 10 mM HEPES, 5 μg/ml coelenterazine) in 384-well microtiter plates and kept in a cell incubator (96% humidity, 5% v/v CO2, 37° C.). On the day of the assay, test compounds in various concentrations are placed for 10 minutes in the wells of the microtiter plate before the agonist [Arg^8]-vasopressin at EC50 concentration is added. The resulting light signal is measured immediately in a luminometer.
(§3) Table 1A below lists individual IC50 values for the compounds of the invention (including racemic mixtures as well as separated enantiomers) that were obtained from cell lines transfected with the human V1a or V2 receptor: […]

The target in the next assay is T2, human V2 receptor (Homo sapiens, UniProt P30518).
T2 construct: expressed in transfected cells; host or cells: CHO K1 (ATCC) line expressing firefly luciferase under a CRE-responsive promoter
The assay is described as follows: Cellular in vitro assay for vasopressin receptor activity, V2 cell line (CRE-luciferase). Format: cell-based. Particulars: CHO cell line transfected with human V2 receptor; agonist [Arg8]-vasopressin at EC50 concentration, 3 hours; read-out: IC50hV2. The method, then:
as §1, §2
Vasopressin V2 Receptor Cell Lines:
On the day before the assay, the cells are plated out in culture medium (DMEM/F12, 2% FCS, 2 mM glutamine, 10 mM HEPES) in 384-well microtiter plates and kept in a cell incubator (96% humidity, 5% v/v CO2, 37° C.). On the day of the assay, test compounds in various concentrations and the agonist [Arg^8]-vasopressin at EC50 concentration are added together to the wells, and plates are incubated for 3 hours in a cell incubator. Upon addition of the cell lysis reagent Triton™ and the substrate luciferin, luminescence of firefly luciferase is measured in a luminometer.
as §3

T1 sequence (P37288 whole entry): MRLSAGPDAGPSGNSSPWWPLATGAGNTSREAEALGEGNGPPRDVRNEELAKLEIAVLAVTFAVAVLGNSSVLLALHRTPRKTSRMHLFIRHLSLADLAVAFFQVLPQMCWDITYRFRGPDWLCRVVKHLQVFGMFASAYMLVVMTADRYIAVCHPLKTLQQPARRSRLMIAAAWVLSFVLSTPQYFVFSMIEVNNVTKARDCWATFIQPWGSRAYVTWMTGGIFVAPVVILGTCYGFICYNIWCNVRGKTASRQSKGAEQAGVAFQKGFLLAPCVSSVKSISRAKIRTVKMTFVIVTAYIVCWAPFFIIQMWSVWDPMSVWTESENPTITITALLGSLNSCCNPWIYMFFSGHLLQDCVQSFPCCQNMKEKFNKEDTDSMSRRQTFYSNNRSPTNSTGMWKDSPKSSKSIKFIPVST
T2 sequence (P30518 whole entry): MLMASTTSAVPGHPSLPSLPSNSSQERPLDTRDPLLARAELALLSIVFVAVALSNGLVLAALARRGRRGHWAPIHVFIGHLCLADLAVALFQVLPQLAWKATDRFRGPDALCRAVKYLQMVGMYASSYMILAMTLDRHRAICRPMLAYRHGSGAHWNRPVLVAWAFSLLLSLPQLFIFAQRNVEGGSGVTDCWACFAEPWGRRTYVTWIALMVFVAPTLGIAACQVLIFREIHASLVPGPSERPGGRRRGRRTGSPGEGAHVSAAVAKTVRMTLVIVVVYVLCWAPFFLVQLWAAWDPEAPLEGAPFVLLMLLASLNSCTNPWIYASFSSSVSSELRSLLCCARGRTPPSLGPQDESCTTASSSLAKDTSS

With `CC(F)c1nc(Cn2nc(-c3ccc(Cl)cc3)n(C[C@H](O)C(F)(F)F)c2=O)nn1-c1ccccc1C(F)(F)F` (single isomer, unassigned) [Example 23], the IC50 worked out at 3.75 nM at human V1a receptor and 33 nM at human V2 receptor. For the same compound, at human V1a receptor, the “ratio IC50 hV2/hV1a” value is reported as 8.8.
The matching figures for `CC(F)c1nc(Cn2nc(-c3ccc(Cl)cc3)n(C[C@H](O)C(F)(F)F)c2=O)nn1-c1ccccc1C(F)(F)F` (single isomer, unassigned) [Example 24]: 1.1 nM, 4.65 nM and 4.2.
The matching figures for `CC(F)c1nc(Cn2nc(-c3ccc(Cl)cc3)n(C[C@H](O)C(F)(F)F)c2=O)nn1-c1ccccc1OC(F)(F)F` (single isomer, unassigned) [Example 26]: 3 nM, 17.5 nM and 5.8.
The matching figures for `CC(F)c1nc(Cn2nc(-c3ccc(Cl)cc3)n(C[C@H](O)C(F)(F)F)c2=O)nn1-c1ccccc1OC(F)(F)F` (single isomer, unassigned) [Example 27]: 1.75 nM, 9.8 nM and 5.6.
As for `CCc1ccccc1-n1nc(Cn2nc(-c3ccc(Cl)cc3)n(C[C@H](O)C(F)(F)F)c2=O)nc1C(C)F` (single isomer, unassigned) [Example 29], on human V1a receptor, the IC50 amounted to 0.91 nM and the “ratio IC50 hV2/hV1a” value was 0.4. In addition, at human V2 receptor, the IC50 was 0.37 nM.
Regarding `CCc1ccccc1-n1nc(Cn2nc(-c3ccc(Cl)cc3)n(C[C@H](O)C(F)(F)F)c2=O)nc1C(C)F` (single isomer, unassigned) [Example 30], on human V1a receptor, the IC50 came out at 1.85 nM and the “ratio IC50 hV2/hV1a” value was 1.0. Besides, on human V2 receptor, the IC50 worked out at 1.9 nM.
With `CC(F)c1nc(Cn2nc(-c3ccc(Cl)cc3)n(C[C@H](O)C(F)(F)F)c2=O)nn1-c1ccccc1OC(F)F` (single isomer, unassigned) [Example 32], the IC50 on human V1a receptor turned out to be 2.4 nM; at human V2 receptor, 8.9 nM. For the same compound, at human V1a receptor, the “ratio IC50 hV2/hV1a” value is recorded as 3.7.
The matching figures for `CC(F)c1nc(Cn2nc(-c3ccc(Cl)cc3)n(C[C@H](O)C(F)(F)F)c2=O)nn1-c1ccccc1OC(F)F` (single isomer, unassigned) [Example 33]: 2.15 nM, 1.8 nM and 0.8.
The matching figures for `Cc1ccccc1-n1nc(Cn2nc(-c3ccc(Cl)cc3)n(C[C@H](O)C(F)(F)F)c2=O)nc1C(C)F` (single isomer, unassigned) [Example 35]: 0.36 nM, 0.17 nM and 0.5.
The matching figures for `Cc1ccccc1-n1nc(Cn2nc(-c3ccc(Cl)cc3)n(C[C@H](O)C(F)(F)F)c2=O)nc1C(C)F` (single isomer, unassigned) [Example 36]: 0.65 nM, 0.98 nM and 1.5.
For the compound `CC(F)c1nc(Cn2nc(-c3ccc(Cl)cc3)n(C[C@H](O)C(F)(F)F)c2=O)nn1-c1ccccc1C#N` (single isomer, unassigned) [Example 39], at human V1a receptor, the IC50 stood at 22.2 nM and the “ratio IC50 hV2/hV1a” value stood at 11.7. The IC50 on human V2 receptor turned out to be 261 nM.
The matching figures for `CC(F)c1nc(Cn2nc(-c3ccc(Cl)cc3)n(C[C@H](O)C(F)(F)F)c2=O)nn1-c1ccccc1C#N` (single isomer, unassigned) [Example 40]: 28.5 nM, 14.7 and 420 nM.
The matching figures for `CC(F)c1nc(Cn2nc(-c3ccc(Cl)cc3)n(C[C@H](O)C(F)(F)F)c2=O)nn1-c1cnccc1C(F)(F)F` (stereo partly drawn) [Example 7, 5-(4-Chlorophenyl)-2-({5-[1-fluoroethyl]-1-[4-(trifluoromethyl)pyridin-3-yl]-1H-1,2,4-triazol-3-yl}methyl)-4-[(2S)-3,3,3-trifluoro-2-hydroxypropyl]-2,4-dihydro-3H-1,2,4-triazol-3-one]: 1.13 nM, 11.1 and 12.5 nM.
In the case of `O=c1n(Cc2nc(C(F)F)n(-c3cccc(Cl)c3)n2)nc(-c2ccc(Cl)cc2)n1C[C@H](O)C(F)(F)F` [Example 50, 5-(4-Chlorophenyl)-2-{[1-(3-chlorophenyl)-5-(difluoromethyl)-1H-1,2,4-triazol-3-yl]methyl}-4-[(2S)-3,3,3-trifluoro-2-hydroxypropyl]-2,4-dihydro-3H-1,2,4-triazol-3-one], at human V1a receptor, the IC50 is 36 nM and the “ratio IC50 hV2/hV1a” value is 0.1. Also, the IC50 at human V2 receptor is 2.59 nM.
The matching figures for `O=c1n(Cc2nc(C(F)F)n(-c3ccccc3Cl)n2)nc(-c2ccc(Cl)cc2)n1C[C@H](O)C(F)(F)F` [Example 51, 5-(4-Chlorophenyl)-2-{[1-(2-chlorophenyl)-5-(difluoromethyl)-1H-1,2,4-triazol-3-yl]methyl}-4-[(2S)-3,3,3-trifluoro-2-hydroxypropyl]-2,4-dihydro-3H-1,2,4-triazol-3-one]: 1.47 nM, 1.5 and 2.2 nM.
In the case of `O=c1n(Cc2nc(C(F)F)n(-c3cccc(F)c3)n2)nc(-c2ccc(Cl)cc2)n1C[C@H](O)C(F)(F)F` [Example 52, 5-(4-Chlorophenyl)-2-{[5-(difluoromethyl)-1-(3-fluorophenyl)-1H-1,2,4-triazol-3-yl]methyl}-4-[(2S)-3,3,3-trifluoro-2-hydroxypropyl]-2,4-dihydro-3H-1,2,4-triazol-3-one], the IC50 came to 10.8 nM on human V1a receptor and 5.92 nM on human V2 receptor. The “ratio IC50 hV2/hV1a” value at human V1a receptor amounted to 0.5.
The matching figures for `CC(F)(F)c1nc(Cn2nc(-c3ccc(Cl)cc3)n(C[C@H](O)C(F)(F)F)c2=O)nn1-c1ccccc1Cl` [Example 53, 5-(4-Chlorophenyl)-2-{[1-(2-chlorophenyl)-5-(1,1-difluoroethyl)-1H-1,2,4-triazol-3-yl]methyl}-4-[(2S)-3,3,3-trifluoro-2-hydroxypropyl]-2,4-dihydro-3H-1,2,4-triazol-3-one]: 0.4 nM, 1.16 nM and 2.9.
The matching figures for `CC(F)(F)c1nc(Cn2nc(-c3ccc(Cl)cc3)n(C[C@H](O)C(F)(F)F)c2=O)nn1-c1cnccc1Cl` [Example 54, 5-(4-Chlorophenyl)-2-{[1-(4-chloropyridin-3-yl)-5-(1,1-difluoroethyl)-1H-1,2,4-triazol-3-yl]methyl}-4-[(2S)-3,3,3-trifluoro-2-hydroxypropyl]-2,4-dihydro-3H-1,2,4-triazol-3-one]: 0.93 nM, 11.2 nM and 12.2.
For the compound `CC(F)(F)c1nc(Cn2nc(-c3ccc(Cl)cc3)n(C[C@H](O)C(F)(F)F)c2=O)nn1-c1cccc(Cl)c1` [Example 55, 5-(4-Chlorophenyl)-2-{[1-(3-chlorophenyl)-5-(1,1-difluoroethyl)-1H-1,2,4-triazol-3-yl]methyl}-4-[(2S)-3,3,3-trifluoro-2-hydroxypropyl]-2,4-dihydro-3H-1,2,4-triazol-3-one], on human V1a receptor, the IC50 is 60 nM and the “ratio IC50 hV2/hV1a” value was 0.1. Also, the IC50 at human V2 receptor stood at 5.23 nM.
